Measured values as given in patent US20100330029A1, “Cancer Treatments with Radiation and Immunocytokines” (Merck Patent GmbH, priority 2008, published 2010).

Tested on: Lewis lung carcinoma (LLC)
Assay: tumor growth assay, Lewis lung carcinoma model
Format: in vivo, mice
Conditions: LLC-3, single-arm groups: cisplatin plus 3.6 Gy/d without EMD521873, or EMD521873 alone
Method: LL/2 (LLC) cells, a murine Lewis lung carcinoma cell line, were maintained in DMEM, supplemented with 10% heat-inactivated fetal bovine serum, L-glutamine, penicillin/streptomycin (Life Technologies, Inc.) at 37° C. and 7% CO2. LLC cells were implanted in female C57BL/6 mice.
For the tumor growth assay, cells growing exponentially in culture were injected as a single cell suspension in 100 μl of PBS intramuscularly into the upper legs of the mice. In experiments using a dual tumor model, cells were also implanted in the flanks of the mice. […] In Experiment LLC-7, tumors were implanted in the flank until established. Mice were treated on days 0 to 9, then, on day 12, tumors were excised using survival surgery. Thereafter, animal survival was monitored. In Experiment LLC-14, tumors were implanted subcutaneously in the flank until established. Mice were treated on days 0 to 6 and day 17, and tumor size was measured twice weekly for the duration of the study.
Tumors were measured with calipers in three dimensions for the duration of the experiment. Tumor volumes were calculated using the equation:
Volume=4/3π(L/2×W/2×H/2) • where L=length, W=width and H=height of the tumor
For local irradiation, mice were anesthetized by intraperitoneal injection of a solution of 2% tribromoethanol/3% xylazine. The amount injected was 0.02 ml/gram of the recipient's weight. Mice were restrained so that only their tumor-bearing leg was exposed to radiation, while the reminder of the mouse was shielded. Tumors were irradiated with ^137Cs gamma radiation at a dose rate of 1 Gy/min using a Gammacell® 40 Exactor (Nordion, Ottawa, ON).
Data from the subcutaneous tumor growth assay are presented in graphic form depicting average and standard deviations (sd) of tumor volumes or weights during and after dosing. Animal weight changes were determined by subtracting the animal weight at each time point from the initial body weight, on day 0, then dividing by the initial body weight and multiplying by 100. Therefore a value of 0 indicates no weight change.
Student's 2-tailed t test or Mann-Whitney Rank Sum test, as appropriate, was performed on the individual tumor volumes or animal weights, to determine significant differences between treatment groups.

For `N.N.[Cl][Pt][Cl]` [cisplatin, cis-diammineplatinum (II) dichloride, reference compound], the T/C (day 19) was 0.32 and the complete responses was 0/6.
